According to ChEMBL document CHEMBL1649124, “Genetic variability among ampC genes from acinetobacter genomic species 3” (Antimicrob Agents Chemother, 2009):

Key:
Acinetobacter pittii [1] = test: Ratio of MIC for Acinetobacter genomosp. 3 isolate 103 to MIC for Acinetobacter genomosp. 3 isolate 103 in presence of efflux pump inhibitor CCCP; type: functional
Acinetobacter pittii [2] = test: Ratio of MIC for Acinetobacter genomosp. 3 isolate 103 to MIC for Acinetobacter genomosp. 3 isolate 103 in presence of efflux pump inhibitor PAN; type: functional

C[C@@H](O)[C@H]1C(=O)N2C(C(=O)O)=C(S[C@@H]3CN[C@H](C(=O)N(C)C)C3)[C@H](C)[C@H]12 [MEROPENEM]
Ratio (Acinetobacter pittii [1]): 3
Ratio (Acinetobacter pittii [2]): 4
